From PMC9404985, “Development of Dicationic Bisguanidine-Arylfuran Derivatives as Potent Agents against Gram-Negative Bacteria” (Antibiotics, 2022)
Like-named read-outs stand apart in the source and are kept apart here.

How the values were obtained:
E. cloacae (CCUG #6323T) = test: Antibacterial activity against isolates (Omnilog, Biolog redox dye); format: cell-based, Enterobacter cloacae; details: for EC50 / EC90: Enterobacter cloacae, ca-MH broth, 24 h, 37 °C; for Selectivity index E. cloacae (CCUG #6323T): SI = ((EC50 MCF-7 + EC50 HepG2)/2)/EC50 bacterial strain
Experimental: (§1) The antibacterial activities of eight compounds (1, 3, 4, 6, 8, 10, 16, and 17) were tested against 10 different isolates of Gram-negative bacteria from human and other sources, two E. coli (CCUG #67180 and CCUG #17620/ATCC #25922, control strain), two K. pneumoniae (CCUG #58547 and CCUG #225T), two P. aeruginosa (CCUG #17619 and CCUG #59347), two A. baumannii (CCUG #57035 and CCUG #57250), E. cloacae (CCUG #6323T), and E. hormaechei (CCUG #58962) in a 96-well plate format. The compounds to test were 3-fold diluted in six steps in cation-adjusted Mueller-Hinton (ca-MH) broth to final concentrations spanning from 30 to 0.12 µM, i.e., a 1667–416,667 times dilution from the 50 mM stocks. Bacterial mass from the ten isolates grown overnight on horse blood or Mueller–Hinton agar plates was suspended in ca-MH and adjusted to a final inoculum cell density of ~5 × 10^5 CFU/mL. For all assays, Biolog redox dye A diluted 100× from the stock solution was used for measurements of all ten isolates (up to a total volume of 120 µL per well). All plates included one well per isolate with only inoculum and dye but no test compound (i.e., positive control) and one well per isolate with inoculum, dye and DMSO diluted 1667×, corresponding to the DMSO concentration in the wells with the highest concentration of test compound. All measurements were performed using the Omnilog microplate reader (Biolog, Hayward, CA, USA) where the 96-well plates were read at 15 min intervals for a total of 24 h at 37 °C.

[1] = tested on: K. pneumoniae (CCUG #58547); test: as above; format: cell-based, Klebsiella pneumoniae; details: for EC50 / EC90: Klebsiella pneumoniae, CCUG58547, ca-MH broth, 24 h, 37 °C; for Selectivity index K. pneumoniae (CCUG #58547): SI = ((EC50 MCF-7 + EC50 HepG2)/2)/EC50 bacterial strain
Experimental: as §1, with “The compounds to test were 3-fold diluted in six steps in cation-adjusted Mueller-Hinton (ca-MH) broth to final concentrations spanning from 30 to 0.12 µM, i.e., a 1667–416,667 times dilution from the 50 mM stocks.” left out

[2] = tested on: K. pneumoniae (CCUG #225T); test: as above; format: cell-based, Klebsiella pneumoniae; details: for EC50 / EC90: Klebsiella pneumoniae, ca-MH broth, 24 h, 37 °C; for Selectivity index K. pneumoniae (CCUG #225T): SI = ((EC50 MCF-7 + EC50 HepG2)/2)/EC50 bacterial strain
Experimental: as §1

[3] = tested on: P. carotovorum (NBRC/ATCC #3380); test: Antibacterial resazurin assay, laboratory strain; details: for EC90: read-out: Pcar EC90; for Selectivity index P. carotovorum: mean of MCF-7 and HepG2 EC50 over bacterial EC50, laboratory strain
[4] = Cytotoxicity assay (PrestoBlue) HepG2; format: cell-based; details: human, HepG2 cells (hepatoma cell line), 24 h incubation
Experimental: The cytotoxicity levels of all compounds were evaluated against human Michigan Cancer Foundation-7 (MCF-7) and Hepatoma G2 cell line (HepG2) cell lines. MCF-7 is an extensively characterized breast cancer cell line isolated in 1970 [41], while HepG2 cells were derived from a hepatoma in 1975 [42]. Both cell lines grow robustly during in vitro culture and have been widely used for cytotoxicity testing. Cells of hepatic origin, such as HepG2, are of particular relevance for toxicity studies as many drugs accumulate in the liver during metabolic conversion. Cells were grown in Dulbecco’s Modified Eagle Medium supplemented with 10% fetal calf serum and kept in exponential growth, as previously reported. Before the assay, cells were reseeded into 96-well microtiter plates at a density allowing continued exponential growth and let to settle for 24 h. The compounds were added from a stock solution in DMSO, for a final concentration of 0.3% v/v of the solvent in the culture medium. After 24 h of incubation in presence of the compound, cell viability was assayed using PrestoBlue Cell Viability Reagent (resazurin-based solution, ThermoFisher, Waltham, MA, USA) according to the manufacturer’s instructions. […] Each assay contained a DMSO control at the equivalent starting concentration, positive control (uninhibited cell growth) and negative control (cell medium only). Survival was expressed as percentage of the solvent-only control. […] The Selectivity Index (SI) for each compound and bacterial strain was calculated as the ratio between the mean of the EC50 values for the two human cell lines and the EC50 for the bacterial strain in question ((EC50 MCF-7 + EC50 HepG2)/2)/EC50 bacterial strain).

[5] = tested on: P. aeruginosa (CCUG #17619); test: Antibacterial activity against isolates (Omnilog, Biolog redox dye); format: cell-based, Pseudomonas aeruginosa; details: for EC50 / EC90: Pseudomonas aeruginosa, CCUG17619, ca-MH broth, 24 h, 37 °C; for Selectivity index P. aeruginosa (CCUG #17619): SI = ((EC50 MCF-7 + EC50 HepG2)/2)/EC50 bacterial strain
Experimental: as §1

[6] = tested on: E. coli MG1655 (CGSC #6300); test: Antibacterial resazurin assay, laboratory strain; details: for EC50 / EC90: Escherichia coli, MG1655, 18 h; for EC50: read-out: Eco EC50; for EC90: read-out: Eco EC90; for Selectivity index E. coli: mean of MCF-7 and HepG2 EC50 over bacterial EC50, laboratory strain
[7] = tested on: A. baumannii (CCUG #57035); test: Antibacterial activity against isolates (Omnilog, Biolog redox dye); format: cell-based, Acinetobacter baumannii; details: for EC50 / EC90: Acinetobacter baumannii, CCUG57035, ca-MH broth, 24 h, 37 °C; for Selectivity index A. baumannii (CCUG #57035): SI = ((EC50 MCF-7 + EC50 HepG2)/2)/EC50 bacterial strain
Experimental: as §1, with “The compounds to test were 3-fold diluted in six steps in cation-adjusted Mueller-Hinton (ca-MH) broth to final concentrations spanning from 30 to 0.12 µM, i.e., a 1667–416,667 times dilution from the 50 mM stocks.” left out

[8] = Pectobacterium carotovorum, ATCC3380, 18 h, read-out: Pcar EC50, laboratory strain, 18 h, 37 °C, AlamarBlue
[9] = Pectobacterium carotovorum, ATCC3380, 18 h
[10] = read-out: Pcar EC50, laboratory strain, 18 h, 37 °C, AlamarBlue

Row | Structure (SMILES) | EC50 (E. cloacae (CCUG #6323T)) [µM] | EC90 (E. cloacae (CCUG #6323T)) [µM] | Selectivity index E. cloacae (CCUG #6323T) (E. cloacae (CCUG #6323T)) | EC50 [1] [µM] | EC90 [1] [µM] | Selectivity index K. pneumoniae (CCUG #58547) [1] | EC50 [2] [µM] | EC90 [2] [µM] | Selectivity index K. pneumoniae (CCUG #225T) [2] | EC50 [3, 8] [µM] | EC90 [3, 9] [µM] | Selectivity index P. carotovorum [3] | EC50 at 24 h [4] [µM] | EC50 [5] [µM] | EC90 [5] [µM] | EC50 [6] [µM] | EC90 [6] [µM] | Selectivity index E. coli [6] | EC50 [7] [µM] | EC90 [7] [µM] | also measured
1 | N=C(N)Nc1ccc(-c2ccc(-c3ccc(NC(=N)N)cc3)o2)cc1 [Compound 3] | 1.5 | 2.5 | 83.1 | 5.6 | 8.3 | 22.1 | 2.8 | 3.1 | 45.2 | 34.6 | 79 | 3.6 | 185 | 9 | 11.1 | 80.4 | 174 | 1.5 | 1.6 | 2.4 | Selectivity index P. aeruginosa (CCUG #17619) [5]: 13.8
2 | Cc1cc(NC(=N)N)ccc1-c1ccc(-c2ccc(NC(=N)N)cc2C)o1 [Compound 4, 2,5-Bis(4-guanidino-2-methylphenyl)furan] | 3.7 | 7.4 | 20.7 | 17.1 | 22.4 | 4.4 | 15.3 | 22.7 | 4.9 | ~28.5 | 37.3 | 2.6 | 51.3 | 17.9 | 25.4 | 48.9 | 80.8 | 1.5 | 16 | 23.5 | EC50 [3, 10]: 28.6 µM; Selectivity index P. aeruginosa (CCUG #17619) [5]: 4.2; Selectivity index A. baumannii (CCUG #57035) [7]: 4.7
3 | COc1cc(NC(=N)N)ccc1-c1ccc(-c2ccc(NC(=N)N)cc2OC)o1 [Compound 6, 2,5-Bis(4-guanidino-2-methoxyphenyl)furan] | 5.3 | 8.4 | 27.4 | 13 | 13.7 | 11.1 | 10.3 | 12.7 | 14.0 | ~28.5 | 45 | 5.1 | 213 | 24.6 | 28.7 | 35.7 | 76.3 | 4.0 | 6.8 | 11 | EC50 [3, 10]: 28.4 µM; Selectivity index P. aeruginosa (CCUG #17619) [5]: 5.9; Selectivity index A. baumannii (CCUG #57035) [7]: 21.3
4 | COC(=O)c1cc(NC(=N)N)ccc1-c1ccc(-c2ccc(NC(=N)N)cc2C(=O)OC)o1 [Compound 8, 2,5-Bis(4-guanidino-2-(methylcarboxy)phenyl)furan] | 4.8 | 7.1 | 50.8 | 10.3 | 13.3 | 23.6 | 5.6 | 7.9 | 43.3 | 140 | 158 | 1.7 | 405 | > 200 | > 200 | 95.4 | 129 | 2.5 | 5.2 | 7 | Selectivity index A. baumannii (CCUG #57035) [7]: 47.2
5 | N=C(N)NCc1ccc(-c2ccc(-c3ccc(CNC(=N)N)cc3)o2)cc1 [Compound 10, 2,5-Bis(4-guanidinomethylphenyl)furan] | 12.4 | 24.7 | 7.5 | > 200 | > 200 |  | > 200 | > 200 |  | 43.6 | 61.2 | 2.1 | 137 | > 200 | > 200 | 73.2 | 108 | 1.3 | > 200 | > 200 | 
